Biological target: T1, hOAT3 (Homo sapiens, UniProt Q8TCC7)
T1 sequence (Q8TCC7 1-542): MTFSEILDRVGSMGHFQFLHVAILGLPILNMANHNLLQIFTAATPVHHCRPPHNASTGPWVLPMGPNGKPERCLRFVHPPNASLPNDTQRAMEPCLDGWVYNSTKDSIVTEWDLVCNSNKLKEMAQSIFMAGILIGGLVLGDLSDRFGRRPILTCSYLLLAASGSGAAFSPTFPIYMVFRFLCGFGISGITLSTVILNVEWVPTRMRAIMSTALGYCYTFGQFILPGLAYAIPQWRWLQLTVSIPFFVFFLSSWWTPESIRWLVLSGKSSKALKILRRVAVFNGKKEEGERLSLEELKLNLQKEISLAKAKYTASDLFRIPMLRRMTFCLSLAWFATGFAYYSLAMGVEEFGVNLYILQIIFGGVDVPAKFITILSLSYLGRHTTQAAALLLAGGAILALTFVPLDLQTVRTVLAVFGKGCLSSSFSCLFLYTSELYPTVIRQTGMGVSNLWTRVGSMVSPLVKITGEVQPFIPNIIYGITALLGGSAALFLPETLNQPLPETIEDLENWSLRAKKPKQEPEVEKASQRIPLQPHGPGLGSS
Experiment: Substrates uptake assay, S2-OAT3 cells (3H-ES)
Type: in vitro ADME
Settings: for Transport activity of OAT3 (main text: percentage inhibition): negative control = 100%
Text: Drug transporters mediate the cellular uptake and efflux of their substrates. Therefore, cell lines overexpressing a drug transporter can be utilized to investigate inhibitors of the transporter by assessing changes in substrate uptake. For each drug transporter, we selected a well-characterized inhibitor as the positive control. Radiolabeled substrates were used to indicate the decrease in transport efficiency when the drug transporters were inhibited by PDQ or the control inhibitors.
The concentrations of the control drugs and the substrates were stated in the assay details. Working solutions of the control inhibitors, the radiolabeled substrates, and each dose of PDQ were prepared at 200 times (200×) more concentrated solutions with DMSO for further dilution.
Transporter-overexpressed cell lines. Human organic anion transporter-overexpressed cell lines MDCKII-OAT1 and S2-OAT3, human organic anion transport polypeptide-overexpressed cell lines HEK293A-OATP1B1 and HEK293A-OATP1B3, human organic cation transporter 2-overexpressed cell line S2-OCT2, and human multi-drug resistance protein MDR1 (or P-gp)-overexpressed cell line MDCKII-MDR1 were gifts from Japan Fuji Biomedical Co., Ltd. (Fuji, Shizuoka Prefecture, Japan). Breast cancer resistance protein-overexpressed vesicles (sf9-BCRP vesicle) were purchased from GenoMembrane Co., Ltd. (Yokohama, Kanagawa, Japan).
Substrates uptake assay. In this assay, we studied the inhibition of PDQ against transporters OAT1, OAT3, OCT2, OATP1B1 and OATP1B3 with MDCKII-OAT1, S2-OAT3, S2-OCT2, HEK293A-OATP1B1and HEK293A-OATP1B3 cells, respectively. The radiolabeled substrates for OAT1, OAT3, OATP1B1, OATP1B3 and OCT2 were […], respectively (Table 5). Probenecid ([…]) was the positive control inhibitor of OAT1 and OAT3, while rifampicin ([…]) served as the control drug of OATP1B1 and OATP1B3. For OCT2, we used […] cimetidine to compare with the inhibitory effect of PDQ. Two times (2×) more concentrated working solutions of the drugs and the substrate were prepared with Dulbecco’s phosphate-buffered saline (DPBS, Gibco, Grand Island, NY, USA.). Then, an equal volume of 2× drug solution and 2× radiolabeled substrate solution were mixed as the working mix. All reagents were pre-warmed to 37 °C.
The cells were digested with 0.05% trypsin/EDTA. The density of the single-cell suspension was adjusted to 2.0 × 10^5 cells/mL for S2 cells and to 1.5 × 10^5 cells/mL for MDCK II and HEK293A cells. The cell suspension was then added to the reservoirs of the 24-well plate for culture until full confluency. The medium in the wells was removed, and the wells were washed with DPBS. Then, the plate was incubated for 10 min with pre-warmed DPBS in the wells. After removing DPBS, […] of working mix was added to each well to initiate the substrate uptake process. The reaction time was 5 min for S2-OCT2 cells, while the other four types of cells were incubated with the reaction mix for 2 min. Cold DPBS was used to terminate the substrate transportation. To each well, […] NaOH ([…]) was added to lyse the cells. Then, […] cell lysate was transferred to the counting vials, and 3 mL scintillation cocktail (Aquasol-2, PerkinElmer, Waltham, MA, USA) was added. […] Each sample was replicated three times (N = 3).
In = [100 × (U − U0)/(Uc − U0)]%(3)
The results were expressed as mean ± standard deviation (SD) and analyzed with GraphPad Prism 8.0 software (CA, USA). The IC50 of PDQ was curve-fitted with the FORECAST function. Statistical significance was calculated using a two-tailed test, and a p value < 0.05 was considered as significant.

SMILES: CC(C)(O)[C@@H]1CC[C@@](C)([C@H]2CC[C@]3(C)[C@@H]2[C@H](O)C[C@@H]2[C@@]4(C)CC[C@H](O)C(C)(C)[C@@H]4CC[C@]23C)O1 [PDQ, (20S,24S)-dammar-20,24-epoxy-3β, 12β, 25-triol]
- DPM (3H-ES uptake by OAT3) (inhibitor 0.1 μM): 7893.7±359.2 DPM
- Transport activity of OAT3 (main text: percentage inhibition) (inhibitor 0.1 μM): 99.5±4.5%
- DPM (3H-ES uptake by OAT3) (inhibitor 0.3 μM): 7623.7±652.1 DPM
- Transport activity of OAT3 (main text: percentage inhibition) (inhibitor 0.3 μM): 96.1±8.2%
- DPM (3H-ES uptake by OAT3) (inhibitor 1 μM): 7285.3±273.2 DPM
- Transport activity of OAT3 (main text: percentage inhibition) (inhibitor 1 μM): 91.8±3.4%
- DPM (3H-ES uptake by OAT3) (inhibitor 3 μM): 7192.7±157.6 DPM
- Transport activity of OAT3 (main text: percentage inhibition) (inhibitor 3 μM): 90.6±2.0%
- DPM (3H-ES uptake by OAT3) (inhibitor 10 μM): 4919.0±360.3 DPM
- Transport activity of OAT3 (main text: percentage inhibition) (inhibitor 10 μM): 62.0±4.5%
- DPM (3H-ES uptake by OAT3) (inhibitor 30 μM): 4541.3±532.8 DPM

From PMC11173382, “In Vitro Investigations into the Potential Drug Interactions of Pseudoginsenoside DQ Mediated by Cytochrome P450 and Human Drug Transporters” (Molecules, 2024)
